Laboratory results as given in patent publication US10287258B2, “Certain (2S)-N-[(1S)-1-cyano-2-phenylethyl]-1,4-oxazepane-2-carboxamides as dipeptidyl peptidase 1 inhibitors” (AstraZeneca AB, priority 2014, dated 2019).

Biological target: recombinant human DPP1 (rhDPP1) (Homo sapiens (Human), UniProt P53634)
Experiment: Test A1: Fluorescence assay for recombinant human (RH) DPP1
Assay type: biochemical
Settings: Test A1 (Examples 1-35); rhDPP1 ~50 pM, 100 μM H-Gly-Arg-AMC, pH 5.0, 22° C.
Method: Test A1: Fluorescence Assay for Recombinant Human (RH) DPP1
The activity of DPP1 was determined by measuring the enzymatic release of aminomethyl coumarin (AMC) from the peptide substrate (H-Gly-Arg-AMC), which leads to an increase in fluorescence intensity at λex=350 nm and λem=450 nm. The assay was carried out in black 384 well plates in a final volume of 50 μl at 22° C. The assay conditions contained the following: 25 mM piperazine buffer pH 5.0; 50 mM NaCl, 5 mM DTT; 0.01% (v/v) Triton X-100; 100 μM H-Gly-Arg-AMC and rhDPP1 (˜50 pM). […] Routinely, inhibitors were pre-incubated with rhDPP1 for 30-60 min prior to the addition of the peptide substrate to start the reaction for a further 60 min at 22° C.

Chain of recombinant human DPP1 (rhDPP1) (P53634 231-394): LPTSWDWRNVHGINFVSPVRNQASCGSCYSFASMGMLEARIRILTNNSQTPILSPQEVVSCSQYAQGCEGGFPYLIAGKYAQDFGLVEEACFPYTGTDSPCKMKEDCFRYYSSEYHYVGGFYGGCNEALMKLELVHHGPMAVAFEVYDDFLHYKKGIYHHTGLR
Chain of recombinant human DPP1 (rhDPP1) (P53634 25-134): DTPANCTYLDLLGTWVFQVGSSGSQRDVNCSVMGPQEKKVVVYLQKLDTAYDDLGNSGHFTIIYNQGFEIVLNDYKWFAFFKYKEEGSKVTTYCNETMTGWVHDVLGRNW
Chain of recombinant human DPP1 (rhDPP1) (P53634 395-463): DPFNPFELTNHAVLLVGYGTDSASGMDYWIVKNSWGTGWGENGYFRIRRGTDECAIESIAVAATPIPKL

Row | SMILES | DPP1 activity, pIC50
1 | N#C[C@H](Cc1ccc(-c2ccc(F)c(F)c2)cc1)NC(=O)[C@@H]1CNCCCO1 [Example 7, (2S)-N-[(1S)-1-Cyano-2-(3′,4′-difluorobiphenyl-4-yl)ethyl]-1,4-oxazepane-2-carboxamide] | 7.16
2 | Cn1c(=O)sc2ccc(-c3ccc(C[C@@H](C#N)NC(=O)[C@@H]4CNCCCO4)cc3)cc21 [Example 29, (2S)-N-{(1S)-1-Cyano-2-[4-(3-methyl-2-oxo-2,3-dihydro-1,3-benzothiazol-5-yl)phenyl]ethyl}-1,4-oxazepane-2-carboxamide] | 8.62
3 | N#C[C@H](Cc1ccc(-c2ccc3oc(=O)n(CC4CC4)c3c2)cc1)NC(=O)[C@@H]1CNCCCO1 [Example 17, (2S)-N-[(1S)-1-Cyano-2-{4-[3-(cyclopropylmethyl)-2-oxo-2,3-dihydro-1,3-benzoxazol-5-yl]phenyl}ethyl]-1,4-oxazepane-2-carboxamide] | 8.2
4 | CN1C(=O)COc2ccc(-c3ccc(C[C@@H](C#N)NC(=O)[C@@H]4CNCCCO4)cc3)cc21 [Example 20, (2S)-N-{(1S)-1-Cyano-2-[4-(4-methyl-3-oxo-3,4-dihydro-2H-1,4-benzoxazin-6-yl)phenyl]ethyl}-1,4-oxazepane-2-carboxamide] | 7.9
5 | N#C[C@H](Cc1ccc(-c2ccc(S(=O)(=O)N3CCC3)cc2)cc1)NC(=O)[C@@H]1CNCCCO1 [Example 31, (2S)-N-{(1S)-2-[4′-(Azetidin-1-ylsulfonyl)biphenyl-4-yl]-1-cyanoethyl}-1,4-oxazepane-2-carboxamide] | 7.67
6 | N#C[C@H](Cc1ccc(-c2cc(F)c3oc(=O)n(CC(F)F)c3c2)cc1)NC(=O)[C@@H]1CNCCCO1 [Example 12, (2S)-N-[(1S)-1-Cyano-2-{4-[3-(2,2-difluoroethyl)-7-fluoro-2-oxo-2,3-dihydro-1,3-benzoxazol-5-yl]phenyl}ethyl]-1,4-oxazepane-2-carboxamide] | 8.0
7 | N#Cc1ccc(-c2ccc(C[C@@H](C#N)NC(=O)[C@@H]3CNCCCO3)cc2)cn1 [Example 8, (2S)-N-{(1S)-1-Cyano-2-[4-(6-cyanopyridin-3-yl)phenyl]ethyl}-1,4-oxazepane-2-carboxamide] | 7.06
8 | CC(C)(O)Cn1c(=O)oc2ccc(-c3ccc(C[C@@H](C#N)NC(=O)[C@@H]4CNCCCO4)cc3)cc21 [Example 11, (2S)-N-[(1S)-1-Cyano-2-{4-[3-(2-hydroxy-2-methylpropyl)-2-oxo-2,3-dihydro-1,3-benzoxazol-5-yl]phenyl}ethyl]-1,4-oxazepane-2-carboxamide] | 7.05
9 | COCCn1c(=O)oc2ccc(-c3ccc(C[C@@H](C#N)NC(=O)[C@@H]4CNCCCO4)cc3)cc21 [Example 21, (2S)-N-[(1S)-1-Cyano-2-{4-[3-(2-methoxyethyl)-2-oxo-2,3-dihydro-1,3-benzoxazol-5-yl]phenyl}ethyl]-1,4-oxazepane-2-carboxamide] | 8.09
10 | N#C[C@H](Cc1ccc(-c2ccc3oc(=O)n(CC4CCOCC4)c3c2)cc1)NC(=O)[C@@H]1CNCCCO1 [Example 25, (2S)-N-[(1S)-1-Cyano-2-{4-[2-oxo-3-(tetrahydro-2H-pyran-4-ylmethyl)-2,3-dihydro-1,3-benzoxazol-5-yl]phenyl}ethyl]-1,4-oxazepane-2-carboxamide] | 7.97
11 | Cc1noc2ccc(-c3ccc(C[C@@H](C#N)NC(=O)[C@@H]4CNCCCO4)cc3)cc12 [Example 5, (2S)-N-{(1S)-1-Cyano-2-[4-(3-methyl-1,2-benzoxazol-5-yl)phenyl]ethyl}-1,4-oxazepane-2-carboxamide] | 7.79
12 | Cn1c(=O)oc2c(Cl)cc(-c3ccc(C[C@@H](C#N)NC(=O)[C@@H]4CNCCCO4)cc3)cc21 [Example 26, (2S)-N-{(1S)-2-[4-(7-Chloro-3-methyl-2-oxo-2,3-dihydro-1,3-benzoxazol-5-yl)phenyl]-1-cyanoethyl}-1,4-oxazepane-2-carboxamide] | 7.87
13 | N#C[C@H](Cc1ccc(-c2ccc(C(F)(F)F)cc2)cc1)NC(=O)[C@@H]1CNCCCO1 [Example 6, (2S)-N-{(1S)-1-Cyano-2-[4′-(trifluoromethyl)biphenyl-4-yl]ethyl}-1,4-oxazepane-2-carboxamide] | 7.44
14 | N#C[C@H](Cc1ccc(-c2ccc3oc(=O)n(CC(F)F)c3c2)cc1)NC(=O)[C@@H]1CNCCCO1 [Example 27, (2S)-N-[(1S)-1-Cyano-2-{4-[3-(2,2-difluoroethyl)-2-oxo-2,3-dihydro-1,3-benzoxazol-5-yl]phenyl}ethyl]-1,4-oxazepane-2-carboxamide] | 8.18
15 | N#Cc1ccc(-c2ccc(C[C@@H](C#N)NC(=O)[C@@H]3CNCCCO3)cc2)s1 [Example 22, (2S)-N-{(1S)-1-Cyano-2-[4-(5-cyanothiophen-2-yl)phenyl]ethyl}-1,4-oxazepane-2-carboxamide] | 7.71
16 | N#C[C@H](Cc1ccc(-c2ccc(F)cc2)cc1)NC(=O)[C@@H]1CNCCCO1 [Example 32, (2S)-N-[(1S)-1-Cyano-2-(4′-fluorobiphenyl-4-yl)ethyl]-1,4-oxazepane-2-carboxamide] | 7.37
17 | Cn1c(=O)ccc2ccc(-c3ccc(C[C@@H](C#N)NC(=O)[C@@H]4CNCCCO4)cc3)cc21 [Example 24, (2S)-N-{(1S)-1-Cyano-2-[4-(1-methyl-2-oxo-1,2-dihydroquinolin-7-yl)phenyl]ethyl}-1,4-oxazepane-2-carboxamide] | 7.86
18 | N#C[C@H](Cc1ccc(-c2ccc3scnc3c2)cc1)NC(=O)[C@@H]1CNCCCO1 [Example 33, (2S)-N-{(1S)-2-[4-(1,3-Benzothiazol-5-yl)phenyl]-1-cyanoethyl}-1,4-oxazepane-2-carboxamide] | 7.21
19 | CN1C(=O)CSc2ccc(-c3ccc(C[C@@H](C#N)NC(=O)[C@@H]4CNCCCO4)cc3)cc21 [Example 9, (2S)-N-{(1S)-1-Cyano-2-[4-(4-methyl-3-oxo-3,4-dihydro-2H-1,4-benzothiazin-6-yl)phenyl]ethyl}-1,4-oxazepane-2-carboxamide] | 7.89
20 | CCn1c(=O)oc2c(C)cc(-c3ccc(C[C@@H](C#N)NC(=O)[C@@H]4CNCCCO4)cc3)cc21 [Example 10, (2S)-N-{(1S)-1-Cyano-2-[4-(3-ethyl-7-methyl-2-oxo-2,3-dihydro-1,3-benzoxazol-5-yl)phenyl]ethyl}-1,4-oxazepane-2-carboxamide] | 7.67
21 | N#C[C@H](Cc1ccc(-c2ccc3oc(=O)n(CC(F)(F)F)c3c2)cc1)NC(=O)[C@@H]1CNCCCO1 [Example 28, (2S)-N-[(1S)-1-Cyano-2-{4-[2-oxo-3-(2,2,2-trifluoroethyl)-2,3-dihydro-1,3-benzoxazol-5-yl]phenyl}ethyl]-1,4-oxazepane-2-carboxamide] | 8.09

Same assay, conditions: Test A1 (Examples 1-35); rhDPP1 ~50 pM, 100 μM H-Gly-Arg-AMC, pH 5.0, 22° C.; read-out: DPP1 activity, pIC50 (converted)

Row | SMILES | IC50
22 | N#Cc1ccc(-c2ccc(C[C@@H](C#N)NC(=O)C3CNCCCO3)cc2)cc1 (mixture of isomers) [Example 34, Diastereomeric mixture of (2S)-N-[(1S)-1-cyano-2-(4′-cyanobiphenyl-4-yl)ethyl]-1,4-oxazepane-2-carboxamide and (2R)—N-[(1S)-1-cyano-2-(4′-cyanobiphenyl-4-yl)ethyl]-1,4-oxazepane-2-carboxamide] | 60.3 nM
